The supplement of paper PMC4862054

Key:
Experiment in all cases: normalised viability (% of control), CellTiter-Blue; higher = more viable cells (about 100 = DMSO control)
Conditions in all cases: incubation time: 72 h
DU-4475 = test system: DU-4475
Summary of the method: (§1)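 Compound dissolved in 5 µl medium was pre-loaded into 384-well plates, and breast cancer cell lines in 20 µl suspension were seeded on top and incubated 72 h. After adding 2.5 µl CellTiter-Blue reagent for 2 h at 37 °C, fluorescence was read at 560/590 nm. Plates were normalised to vehicle (100) and a positive kill control (0), with Z'-factor quality control. Each value is normalised viability at a single listed concentration from the series.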

BT-474 = test system: BT-474
Summary of the method: as §1

BT-549 = test system: BT-549
Summary of the method: as §1

HCC1937 = test system: HCC1937
Summary of the method: as §1

MDA-MB-231 = test system: MDA-MB-231
Summary of the method: as §1

CAL-148 = test system: CAL-148
Summary of the method: as §1

CAL-51 = test system: CAL-51
Summary of the method: as §1

Hs578T = test system: Hs578T
Summary of the method: as §1

CAL-85-1 = test system: CAL-85-1
Summary of the method: as §1

HCC1599 = test system: HCC1599
Summary of the method: as §1

MDA-MB-453 = test system: MDA-MB-453
Summary of the method: as §1

HCC1143 = test system: HCC1143
Summary of the method: as §1

MFM-223 = test system: MFM-223
Summary of the method: as §1

MDA-MB-436 = test system: MDA-MB-436
Summary of the method: as §1

MDA-MB-468 = test system: MDA-MB-468
Summary of the method: as §1

HDQ-P1 = test system: HDQ-P1
Summary of the method: as §1

O=NN(CCCl)C(=O)NCCCl [Carmustine]
normalised viability [%]
Conditions | 3 nM | 10 nM | 30 nM | 100 nM | 1000 nM | 10000 nM
BT-474 | – | 124 | – | – | 98.8 | 125
BT-549 | – | 88.2 | – | – | 89.9 | 103
CAL-51 | 108 | – | 107 | 99.4 | – | –
CAL-85-1 | 95.1 | – | 88.9 | 96.6 | – | –
CAL-148 | 94.5 | – | 96.7 | 97.5 | – | –
DU-4475 | 85.3 | – | 83.5 | 93 | – | –
HCC1143 | – | 87.2 | – | – | 85.4 | 86.6
HCC1599 | – | 99 | – | – | 83.5 | 84.2
HCC1937 | – | 95 | – | – | 93 | 71.5
HDQ-P1 | 120 | – | 128 | 108 | – | –
Hs578T | – | 114 | – | – | 95.3 | 115
MDA-MB-231 | – | 103 | – | – | 99.1 | 117
MDA-MB-436 | – | 91.8 | – | – | 105 | 87.5
MDA-MB-453 | 109 | – | 105 | 110 | – | –
MDA-MB-468 | – | 107 | – | – | 102 | 103
MFM-223 | – | 93.1 | – | – | 94.6 | 103

Cc1sc2c(c1C)C(c1ccc(Cl)cc1)=N[C@@H](CC(=O)OC(C)(C)C)c1nnc(C)n1-2 [(+)JQ1]
normalised viability [%]
Conditions | 3 nM | 10 nM | 30 nM | 100 nM | 1000 nM | 10000 nM
BT-474 | – | 118 | – | – | 95.1 | 102
BT-549 | – | 108 | – | – | 53.8 | 36.9
CAL-51 | 100 | – | 96.9 | 104 | – | –
CAL-85-1 | 93.2 | – | 82.6 | 80 | – | –
CAL-148 | 95.7 | – | 103 | 97.3 | – | –
DU-4475 | 104 | – | 77.6 | 90.1 | – | –
HCC1143 | – | 91.1 | – | – | 67.6 | 58.7
HCC1599 | – | 115 | – | – | 58 | 54.6
HCC1937 | – | 109 | – | – | 62.9 | 55.9
HDQ-P1 | 102 | – | 113 | 107 | – | –
Hs578T | – | 100 | – | – | 61.4 | 44.8
MDA-MB-231 | – | 107 | – | – | 32.8 | 35.9
MDA-MB-436 | – | 105 | – | – | 86.3 | 99.7
MDA-MB-453 | 111 | – | 107 | 84.5 | – | –
MDA-MB-468 | – | 107 | – | – | 71.8 | 52.2
MFM-223 | – | 99.3 | – | – | 54 | 45.4

Nc1ncn([C@@H]2O[C@H](CO)[C@@H](O)[C@H]2O)c(=O)n1 [Azacitidine]
normalised viability [%]
Conditions | 3 nM | 10 nM | 30 nM | 100 nM | 1000 nM | 10000 nM
BT-474 | – | 104 | – | – | 102 | 95
BT-549 | – | 115 | – | – | 95.4 | 48.7
CAL-51 | 102 | – | 104 | 104 | – | –
CAL-85-1 | 98.5 | – | 97.8 | 92.6 | – | –
CAL-148 | 83.8 | – | 85.2 | 89.3 | – | –
DU-4475 | 97.2 | – | 116 | 117 | – | –
HCC1143 | – | 72.6 | – | – | 83.8 | 62.3
HCC1599 | – | 111 | – | – | 72.8 | 88.4
HCC1937 | – | 94 | – | – | 74.4 | 56.9
HDQ-P1 | 141 | – | 104 | 96 | – | –
Hs578T | – | 98.4 | – | – | 90.2 | 36
MDA-MB-231 | – | 81.1 | – | – | 85.4 | 69.9
MDA-MB-436 | – | 114 | – | – | 86.3 | 70.3
MDA-MB-453 | 104 | – | 109 | 102 | – | –
MDA-MB-468 | – | 110 | – | – | 40.7 | 20.9
MFM-223 | – | 100 | – | – | 95.5 | 59.4
